Results from patent US9187471B2, “Pyrido [4,3-b] indole and pyrido [3,4-b] indole derivatives and methods of use” (Medivation Technologies, Inc., priority 2010, dated 2015).
Like-named read-outs stand apart in the source and are kept apart here.

Assays:
[1] = molecular target: T1, human recombinant serotonin (5-Hydroxytryptamine) 5-HT7 receptor (Homo sapiens, UniProt P34969); assay: Serotonin 5-HT7 radioligand binding ([3H]LSD); details: compound at 0.1 μM; for inhibition at 0.1 µM: read-out: Inhibition of ligand binding, Serotonin 5-HT7 (percent inhibition of specific binding)
T1 construct: expressed in transfected cells; host or cells: CHO
T1 sequence (P34969 whole entry): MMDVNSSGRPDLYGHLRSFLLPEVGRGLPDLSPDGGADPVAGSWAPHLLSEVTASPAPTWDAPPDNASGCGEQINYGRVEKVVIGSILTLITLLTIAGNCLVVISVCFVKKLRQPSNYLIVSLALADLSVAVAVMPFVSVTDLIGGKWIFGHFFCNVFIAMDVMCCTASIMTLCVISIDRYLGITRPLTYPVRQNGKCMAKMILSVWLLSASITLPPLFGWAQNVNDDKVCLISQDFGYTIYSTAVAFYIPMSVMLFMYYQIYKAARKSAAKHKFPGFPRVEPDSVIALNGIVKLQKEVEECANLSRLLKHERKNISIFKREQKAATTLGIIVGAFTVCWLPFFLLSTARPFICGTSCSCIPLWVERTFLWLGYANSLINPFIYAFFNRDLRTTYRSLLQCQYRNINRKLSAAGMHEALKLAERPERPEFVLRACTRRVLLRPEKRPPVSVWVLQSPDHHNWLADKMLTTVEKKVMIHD
Procedure: Lysergic acid diethylamide (LSD) for 120 min. at 25° C. […] Receptor proteins were filtered and washed, the filters were then counted to determine [^3H]LSD specifically bound.

[2] = molecular target: T2, rat adrenergic α1A receptor (Rattus norvegicus, UniProt P43140); assay: Adrenergic α1A radioligand binding ([3H]Prazosin); details: read-out: Adrenergic (0.1 μM) a1A, percent inhibition of specific binding; compound at 0.1 μM; 0.25 nM [3H]Prazosin
T2 construct: rat adrenergic α1A receptor obtained from Wistar Rat submaxillary glands; from tissue; host or cells: Wistar rat submaxillary glands
T2 sequence (P43140 1-466): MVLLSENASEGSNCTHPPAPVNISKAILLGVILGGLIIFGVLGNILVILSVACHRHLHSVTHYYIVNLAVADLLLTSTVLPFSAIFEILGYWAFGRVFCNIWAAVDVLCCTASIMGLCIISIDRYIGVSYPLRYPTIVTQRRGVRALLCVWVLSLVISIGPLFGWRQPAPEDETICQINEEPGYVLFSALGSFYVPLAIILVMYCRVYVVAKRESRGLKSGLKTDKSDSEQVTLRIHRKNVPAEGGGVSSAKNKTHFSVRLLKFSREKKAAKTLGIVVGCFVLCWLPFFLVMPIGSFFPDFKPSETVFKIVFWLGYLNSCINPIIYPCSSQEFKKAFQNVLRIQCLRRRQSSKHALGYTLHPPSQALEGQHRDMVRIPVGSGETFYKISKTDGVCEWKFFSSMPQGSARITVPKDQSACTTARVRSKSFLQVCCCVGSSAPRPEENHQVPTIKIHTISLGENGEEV
Procedure: To evaluate in radioligand binding assays the activity of compounds of the invention, rat adrenergic α1A receptor obtained from Wistar Rat submaxillary glands (Michel, A. et al, Br. J. Pharmacol. 98:883, 1989) in a modified Tris-HCl buffer (50 mM Tris-HCl buffer, pH 7.4, 0.5 mM EDTA) was used. Compounds of the invention were incubated with 0.25 nM [^3H]Prazosin for 60 min at 25° C. Non-specific binding was estimated in the presence of 10 μM phentolamine Receptor proteins were filtered and washed, the filters were then counted to determine [^3H]Prazosin specifically bound. […] Compounds of the invention were tested in this biochemical assay and percent inhibition of specific binding was determined.

[3] = molecular target: T3, human recombinant serotonin (5-Hydroxytryptamine) 5-HT2A receptor (Homo sapiens, UniProt P28223); assay: Serotonin 5-HT2A radioligand binding ([3H]Ketanserin); details: read-out: Inhibition of ligand binding, Serotonin 5-HT2A (percent inhibition of specific binding)
T3 construct: expressed in transfected cells; host or cells: CHO-K1
T3 sequence (P28223 whole entry): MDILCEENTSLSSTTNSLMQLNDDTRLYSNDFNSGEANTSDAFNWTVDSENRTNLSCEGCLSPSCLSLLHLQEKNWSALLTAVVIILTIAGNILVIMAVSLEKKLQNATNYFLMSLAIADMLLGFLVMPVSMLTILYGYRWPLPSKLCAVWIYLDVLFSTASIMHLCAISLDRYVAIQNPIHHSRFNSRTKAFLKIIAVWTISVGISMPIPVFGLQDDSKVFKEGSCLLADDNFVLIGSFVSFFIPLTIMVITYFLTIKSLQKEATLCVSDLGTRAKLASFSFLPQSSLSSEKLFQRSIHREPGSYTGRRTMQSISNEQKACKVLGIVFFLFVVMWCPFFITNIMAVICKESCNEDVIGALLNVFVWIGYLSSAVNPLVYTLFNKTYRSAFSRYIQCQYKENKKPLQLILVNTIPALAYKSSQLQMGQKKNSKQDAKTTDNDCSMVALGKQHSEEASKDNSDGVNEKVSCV
Procedure: Compounds of the invention were incubated with 0.5 nM [^3H]Ketanserin for 60 min at 25° C. Non-specific binding was estimated in the presence of 1 μM Mianserin. Receptor proteins were filtered and washed, the filters were then counted to determine [^3H]Ketanserin specifically bound.

[4] = molecular target: T4, human recombinant serotonin (5-Hydroxytryptamine) 5-HT6 receptor (Homo sapiens, UniProt P50406); assay: Serotonin 5-HT6 radioligand binding ([3H]LSD); details: compound at 0.1 μM; for inhibition at 0.1 µM: read-out: Inhibition of ligand binding, Serotonin 5-HT6 (percent inhibition of specific binding)
T4 construct: expressed in transfected cells; host or cells: HeLa
T4 sequence (P50406 whole entry): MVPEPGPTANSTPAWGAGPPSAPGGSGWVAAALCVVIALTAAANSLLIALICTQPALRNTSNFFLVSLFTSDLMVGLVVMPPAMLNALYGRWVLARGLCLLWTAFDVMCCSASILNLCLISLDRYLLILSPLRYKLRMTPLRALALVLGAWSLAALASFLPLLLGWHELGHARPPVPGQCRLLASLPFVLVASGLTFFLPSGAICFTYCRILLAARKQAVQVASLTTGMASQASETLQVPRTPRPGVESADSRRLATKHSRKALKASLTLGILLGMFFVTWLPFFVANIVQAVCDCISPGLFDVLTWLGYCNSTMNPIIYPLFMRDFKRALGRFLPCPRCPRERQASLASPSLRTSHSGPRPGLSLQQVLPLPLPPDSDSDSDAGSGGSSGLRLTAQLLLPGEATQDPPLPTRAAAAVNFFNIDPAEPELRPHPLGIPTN
Excerpt: Receptor proteins were filtered and washed, the filters were then counted to determine [3H]LSD specifically bound.

[5] = molecular target: T5, human recombinant dopamine D2L receptor (Homo sapiens, UniProt P14416); assay: Dopamine D2L radioligand binding ([3H]Spiperone); details: 0.16 nM [3H]Spiperone; for inhibition at 1 µM: read-out: Dopamine D2L (1 μM), percent inhibition of specific binding, compound at 1 μM
T5 construct: expressed in transfected cells; host or cells: CHO
T5 sequence (P14416 whole entry): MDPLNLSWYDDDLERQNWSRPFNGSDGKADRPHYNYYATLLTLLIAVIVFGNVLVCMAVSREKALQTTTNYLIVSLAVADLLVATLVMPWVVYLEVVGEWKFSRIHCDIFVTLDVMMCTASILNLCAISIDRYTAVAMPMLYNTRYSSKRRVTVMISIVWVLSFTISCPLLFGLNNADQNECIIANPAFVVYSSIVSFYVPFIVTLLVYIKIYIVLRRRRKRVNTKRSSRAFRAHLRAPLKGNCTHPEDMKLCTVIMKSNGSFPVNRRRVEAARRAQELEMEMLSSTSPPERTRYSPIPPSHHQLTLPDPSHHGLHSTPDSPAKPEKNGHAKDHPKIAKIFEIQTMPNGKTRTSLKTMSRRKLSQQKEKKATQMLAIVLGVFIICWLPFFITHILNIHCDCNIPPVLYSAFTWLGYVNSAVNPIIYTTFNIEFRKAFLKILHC
Procedure: Non-specific binding was estimated in the presence of 10 μM Haloperidol. Receptor proteins were filtered and washed, the filters were then counted to determine [^3H]Spiperone specifically bound.

[6] = molecular target: T6, human recombinant adrenergic α2C receptor (Homo sapiens, UniProt P18825); assay: Adrenergic α2C radioligand binding ([3H]MK-912); details: read-out: Adrenergic (0.1 μM) a2C, percent inhibition of specific binding; compound at 0.1 μM; 1 nM [3H]MK-912
T6 construct: expressed in transfected cells; host or cells: insect Sf9 cells
T6 sequence (P18825 1-462): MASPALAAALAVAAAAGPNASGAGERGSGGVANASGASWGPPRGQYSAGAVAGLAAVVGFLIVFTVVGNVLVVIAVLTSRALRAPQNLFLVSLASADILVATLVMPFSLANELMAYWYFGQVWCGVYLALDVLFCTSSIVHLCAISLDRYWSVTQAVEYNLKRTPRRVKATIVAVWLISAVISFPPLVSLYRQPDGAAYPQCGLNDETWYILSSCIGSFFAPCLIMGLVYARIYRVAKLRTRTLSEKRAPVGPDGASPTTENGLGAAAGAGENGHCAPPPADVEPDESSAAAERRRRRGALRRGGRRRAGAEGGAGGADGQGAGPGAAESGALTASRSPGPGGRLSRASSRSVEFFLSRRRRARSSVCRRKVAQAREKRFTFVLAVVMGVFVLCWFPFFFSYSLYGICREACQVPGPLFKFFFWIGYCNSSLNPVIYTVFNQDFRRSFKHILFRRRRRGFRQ
Procedure: To evaluate in radioligand binding assays the activity of compounds of the invention, human recombinant adrenergic α2C receptor expressed in insect Sf9 cells (Uhlen, S. et al, J. Pharmacol. Exp. Ther. 271:1558, 1994) in a modified Tris-HCl buffer (50 mM Tris-HCl, pH 7.4, 12.5 mM MgCl2, 2 mM EDTA) was used. Compounds of the invention were incubated with 1 nM [^3H]MK-912 for 60 min at 25° C. Non-specific binding was estimated in the presence of 10 μM WB-4101. Receptor proteins were filtered and washed, the filters were then counted to determine [^3H]MK-912 specifically bound. […] Compounds of the invention were tested in this biochemical assay and percent inhibition of specific binding was determined.

[7] = molecular target: T7, human recombinant histamine H1 receptor (Homo sapiens, UniProt P35367); assay: Histamine H1 radioligand binding ([3H]Pyrilamine); details: read-out: Histamine H1 Binding (1 μM), percent inhibition of specific binding; compound at 1 μM; 1.2 nM [3H]Pyrilamine
T7 construct: expressed in transfected cells; host or cells: CHO-K1
T7 sequence (P35367 whole entry): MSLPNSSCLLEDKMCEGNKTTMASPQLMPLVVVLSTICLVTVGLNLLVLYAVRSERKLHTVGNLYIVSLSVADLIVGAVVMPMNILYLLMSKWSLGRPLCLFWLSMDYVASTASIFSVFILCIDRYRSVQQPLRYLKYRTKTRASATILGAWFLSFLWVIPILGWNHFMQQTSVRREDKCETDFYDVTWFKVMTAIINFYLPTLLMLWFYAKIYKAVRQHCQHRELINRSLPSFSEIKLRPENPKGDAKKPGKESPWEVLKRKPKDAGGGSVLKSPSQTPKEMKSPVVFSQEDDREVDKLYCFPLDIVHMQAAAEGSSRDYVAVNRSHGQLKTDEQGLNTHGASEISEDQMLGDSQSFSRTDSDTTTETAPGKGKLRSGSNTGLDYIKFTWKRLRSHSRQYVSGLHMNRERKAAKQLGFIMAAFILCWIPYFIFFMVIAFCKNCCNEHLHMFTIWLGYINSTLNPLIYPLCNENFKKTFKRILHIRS
Procedure: To evaluate in radioligand binding assays the activity of compounds of the invention, human recombinant histamine H1 receptor expressed in Chinese hamster ovary (CHO) K1 cells (De Backer, M. et al, Biochem. Biophys. Res. Comm. 197(3):1601, 1993) in a modified Tris-HCl buffer (50 mM Tris-HCl, pH 7.4, 2 mM MgCl2, 100 mM NaCl, 250 mM Sucrose) was used. […] Non-specific binding was estimated in the presence of 1 μM Pyrilamine. Receptor proteins were filtered and washed, the filters were then counted to determine [^3H]Pyrilamine specifically bound. […] Biochemical assay results are presented as the percent inhibition of specific binding in Table 2.

[8] = molecular target: T8, human recombinant serotonin (5-Hydroxytryptamine) 5-HT5A receptor (Homo sapiens, UniProt P47898); assay: Serotonin 5-HT5A radioligand binding ([3H]LSD); details: compound at 0.1 μM
T8 construct: expressed in transfected cells; host or cells: CHO-K1
T8 sequence (P47898 whole entry): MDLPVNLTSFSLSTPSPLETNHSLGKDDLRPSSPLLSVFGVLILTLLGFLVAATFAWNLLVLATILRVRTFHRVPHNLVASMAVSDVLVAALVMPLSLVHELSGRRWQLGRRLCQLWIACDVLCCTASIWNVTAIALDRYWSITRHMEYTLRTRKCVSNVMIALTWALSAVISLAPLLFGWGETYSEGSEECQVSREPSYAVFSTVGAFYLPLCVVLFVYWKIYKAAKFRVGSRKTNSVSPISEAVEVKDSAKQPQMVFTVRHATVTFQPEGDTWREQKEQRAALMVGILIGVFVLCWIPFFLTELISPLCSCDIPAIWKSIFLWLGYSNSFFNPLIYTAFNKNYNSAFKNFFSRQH
Procedure: Compounds of the invention were incubated with 1.7 nM [^3H]Lysergic acid diethylamide (LSD) for 60 min at 37° C. […] Receptor proteins were filtered and washed, the filters were counted to determine [^3H]LSD specifically bound.

[9] = molecular target: T9, human recombinant serotonin (5-Hydroxytryptamine) 5-HT2C receptor (Homo sapiens, UniProt P28335); assay: Serotonin 5-HT2C radioligand binding ([3H]Mesulergine); details: compound at 0.1 μM; read-out: Inhibition of ligand binding, Serotonin 5-HT2C (percent inhibition of specific binding)
T9 construct: expressed in transfected cells; host or cells: CHO-K1
T9 sequence (P28335 33-458): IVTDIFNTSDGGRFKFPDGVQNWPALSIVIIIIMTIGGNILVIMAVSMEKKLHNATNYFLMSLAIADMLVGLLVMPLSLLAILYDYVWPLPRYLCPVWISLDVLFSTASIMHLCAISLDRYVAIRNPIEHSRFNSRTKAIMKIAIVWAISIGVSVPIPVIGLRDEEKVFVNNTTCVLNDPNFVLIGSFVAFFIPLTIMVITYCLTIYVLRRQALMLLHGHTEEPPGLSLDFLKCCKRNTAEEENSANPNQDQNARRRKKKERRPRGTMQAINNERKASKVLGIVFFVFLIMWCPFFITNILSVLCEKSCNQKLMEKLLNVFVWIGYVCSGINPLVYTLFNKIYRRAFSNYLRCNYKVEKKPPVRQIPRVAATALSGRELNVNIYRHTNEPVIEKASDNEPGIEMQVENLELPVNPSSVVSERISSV
Procedure: Compounds of the invention were incubated with 1 nM [^3H]Mesulergine for 60 min at 25° C. Non-specific binding was estimated in the presence of 1 μM Mianserin. Receptor proteins were filtered and washed, the filters were then counted to determine [^3H]Mesulergine specifically bound.

| Compound | inhibition at 0.1 µM [1] [%] | inhibition at 0.1 µM [2] [%] | inhibition at 0.1 µM ([3]; compound at 0.1 μM) [%] | inhibition at 0.1 µM [4] [%] | inhibition at 0.1 µM ([5]; read-out: Dopamine D2L (0.1 μM), percent inhibition of specific binding, compound at 0.1 μM) [%] | inhibition at 0.1 µM [6] [%] | inhibition at 1 µM [7] [%] | inhibition at 0.1 µM ([8]; read-out: Inhibition of ligand binding, Serotonin 5-HT5A (percent inhibition of specific binding)) [%] | Inhibition of ligand binding, Serotonin 5-HT7 (percent inhibition of specific binding) [1] [%] | inhibition at 0.1 µM [3] [%] | Inhibition of ligand binding, Serotonin 5-HT6 (percent inhibition of specific binding) [4] [%] | inhibition at 1 µM [5] [%] | Inhibition of ligand binding, Serotonin 5-HT5A (percent inhibition of specific binding) [8] [%] | inhibition at 0.1 µM [9] [%] |
| --- | --- | --- | --- | --- | --- | --- | --- | --- | --- | --- | --- | --- | --- | --- |
| Cc1cc(C)c2c(c1)c1c(n2-c2cscc2-c2ccncc2)CCN(C)C1 [Compound No. 149] | 11 | 14 | 45 | 93 | 5 | 2 | -5 | -13 |  |  |  |  |  |  |
| Cc1ccc2c(c1)c1c(n2-c2ccccc2-c2ccc(O)nc2)CCN(C)C1 [Compound No. 80, 5-(2-(2,8-dimethyl-3,4-dihydro-1H-pyrido[4,3-b]indol-5(2H)-yl)phenyl)pyridin-2-ol] |  | 15 |  |  |  | -6 | 28 |  | 41 | 28 | −1 | 2 | 25 | 11 |
| Cc1ccc2c(c1)c1c(n2-c2ccsc2)CCN(C)C1 [Compound 14, 2,8-dimethyl-5-thiophen-3-yl-2,3,4,5-tetrahydro-1H-pyrido[4,3-b]indole] | 61 | 30 | 97 | 82 |  | 4 | 86 |  |  |  |  | 50 |  | 95 |
